Values after ≈ are worked out from the molar mass of the structure shown. Read-outs that look alike come from different tables or passages of the source.
Assays:
[1] = Human liver microsome metabolic stability; type: in vitro ADME; settings: human liver microsomes; for HLM Clint: 1 µM; for microsomal CLint at 1 µM: read-out: HLM Clint
From the text: Liver microsomes which are subcellular particles derived from endoplasmic reticulum of hepatic cells were used for evaluating the tested compounds. These particles are rich in drug metabolizing enzymes, including the cytochrome p-450 family. Liver microsomes are a recommended test system for various in vitro drug metabolism and pharmacokinetics (DMPK) studies. CLint values lower than […] are considered suitable for drug development.
Liver Microsome Metabolic Stability Assay (NADPH): The liver microsome stability assay was evaluated through pre-incubation with HLMs. A liver microsome mixture (pooled from multiple donors) at a concentration of 0.5 mg/mL, and the test compound at a concentration of 1 μM, were warmed in the presence of a NADPH regenerating system (about 1.0 mM) at 37° C. Positive controls, including testosterone (a CYP3A4 substrate), propafenone (a CYP2D6 substrate), and diclofenac (a CYP2C9) substrate, were concurrently incubated with the HLMs, in the presence of the NADPH regenerating system (1.0 mM). Samples were extracted during incubation at multiple intervals: 0, 5, 15, 30, 45 and 60 minutes. To terminate the reactions, the samples were promptly mixed with cooled acetonitrile that included an internal standard (IS). An additional compound was incubated with the HLMs in the absence of the NADPH regeneration system, from which a sample was taken at the 60-minute interval.
The clearance of the test compound in the samples was subsequently analyzed by LC-MS/MS based on the peak area ratios of the analyte to the IS.
The following equation was used to calculate the microsome clearance: […]
Liver weight: 40 grams/kg, 30 grams/kg, 32 grams/kg, 20 grams/kg and 88 grams/kg, for rat, monkey, dog, human and mouse, respectively.

[2] = Log D, 1-octanol/buffer shake flask; type: physicochemical; settings: pH 7.4
Experimental: The Log D assay was a miniaturized 1-octanol/buffer shake flask method followed by LC/MS/MS analysis, as follows.
The test compounds or control compounds Nadolol, Chlorpromazine Hydrochloride and Propranolol Hydrochloride were dissolved in 100% DMSO to obtain 10 mM solutions, which were transferred to 96-well polypropylene cluster tubes; 2 μL/well. 1-octanol saturated with 0.1 M phosphate buffer (149 μL/well) and 0.1 M phosphate buffer saturated with 1-octanol (149 μL/well) were added to the tubes, respectively, and each tube was vigorously mixed for 2 minutes and then shaked at a speed of 800 rpm at room temperature for 1 hour, followed by centrifugation at 4000 rpm for 5 minutes at room temperature. Thereafter, for the test compounds and the Chlorpromazine Hydrochloride and Propranolol Hydrochloride, the sample of the buffer layer was diluted by a factor of 50-fold and the sample of 1-octanol layer was diluted by a factor of 2000-fold with internal standard (IS) solution. For Nadolol, the sample of the buffer layer was diluted by a factor of 1000-fold and the sample of 1-octanol layer was diluted by a factor of 400-fold with internal standard (IS) solution. The samples were analyzed using a triple quadrupole mass spectrometer. Peak areas were corrected by dilution factors and embedded internal standard, and the ratio of the corrected peak areas was used to calculate the Log D value. The Log D value for each compound will be calculated by the following equation: […]

Kinetic solubility = type: physicochemical; settings: Table 1; for solubility kinetic: hhbs buffer, aqueous buffer, read-out: Kinetic Sol.
Experimental: Solubility measurements were performed prior to each in vitro assay to ensure accurate dose response and reproducibility. Briefly, each compound was dissolved to 60 mM in DMSO and calibration curve was performed from 1.5-200 μM using absorbance spectra analysis and determination of λmax. Calibration curve served as the readout for all following assays. The 60 mM stock solution was used to make a 120 μM target concentration of 0.2% DMSO in the appropriate buffer of the in vitro related assay (i.e. HHBS buffer). Solubilized compounds were vortex for 10 minutes followed by centrifugation for 15 minutes in 5000 RPM and the supernatant was recovered for absorbance spectra analysis between 200-400 nm.

hTRPV1 = target: T1, hTRPV1 (Homo sapiens, UniProt Q8NER1); test: TRPV1 HCS, Fluo-8 calcium flux, capsaicin activation, CHO cells expressing hTRPV1; type: cell-based
T1 construct: CDS of NM_080704.4, inserted into the multiple cloning site of pcDNA3.1(+); host or cells: CHO/hKv7.2/3
T1 sequence (Q8NER1 whole entry): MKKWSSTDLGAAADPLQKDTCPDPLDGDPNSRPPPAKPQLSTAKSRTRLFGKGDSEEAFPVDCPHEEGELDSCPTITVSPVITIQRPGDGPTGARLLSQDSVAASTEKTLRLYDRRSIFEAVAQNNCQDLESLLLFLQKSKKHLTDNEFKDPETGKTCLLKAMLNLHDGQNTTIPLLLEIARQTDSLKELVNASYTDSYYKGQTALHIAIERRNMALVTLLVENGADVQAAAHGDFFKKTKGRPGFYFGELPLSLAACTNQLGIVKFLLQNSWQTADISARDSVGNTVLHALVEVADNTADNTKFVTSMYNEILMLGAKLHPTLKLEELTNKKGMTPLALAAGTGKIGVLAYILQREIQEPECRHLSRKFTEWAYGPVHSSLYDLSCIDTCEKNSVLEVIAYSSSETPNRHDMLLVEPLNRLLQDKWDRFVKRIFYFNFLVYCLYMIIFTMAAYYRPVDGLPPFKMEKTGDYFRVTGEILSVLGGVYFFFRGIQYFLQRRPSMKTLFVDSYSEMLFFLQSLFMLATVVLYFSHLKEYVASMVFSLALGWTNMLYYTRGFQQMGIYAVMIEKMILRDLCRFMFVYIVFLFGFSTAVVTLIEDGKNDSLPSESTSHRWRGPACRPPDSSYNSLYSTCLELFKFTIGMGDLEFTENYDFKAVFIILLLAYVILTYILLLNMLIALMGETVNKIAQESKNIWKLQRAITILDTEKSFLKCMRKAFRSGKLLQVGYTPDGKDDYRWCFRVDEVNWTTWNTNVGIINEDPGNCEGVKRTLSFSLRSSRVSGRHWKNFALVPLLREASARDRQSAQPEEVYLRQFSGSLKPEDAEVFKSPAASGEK
Experimental: Cell culture: Chinese hamster ovary (CHO) cell-line cells with constitutive expression of human hTRPV1 channels (B'SYS GmbH, Switzerland) were cultured in F-12 nutrient mixture (Biological Industries) supplemented with 10% fetal bovine serum (Biological Industries) and 1% penicillin-streptomycin (Biological Industries) in a humidified 5% CO2 incubator at 37° C. To maintain the stable expression of hTRPV1, antibiotic selection (G418 500 μg/ml) was applied.
High content screen (HCS) using Fluo-8 No Wash Calcium flux Assay Kit: Fluo-8 No Wash Calcium Assay Kit (Abcam, ab112129) was used with CHO stably or transiently expressing TRPV1 to screen compounds against the hTRPV1 ion channel target. The cells were pre-loaded with Fluo-8AM which is membrane permeable. The AM groups of the Fluo-8AM were then being cleaved by intracellular esterase, trapping the Fluo8 in the cell. […] The relative fluorescence signal was calculated following background subtraction, comparing the fluorescence at each time point to its maximal level measured following Ionomycin application in the end.
According to optimization process to achieve uniform and consistent screening condition of molecules the following protocol was established: Cells were seeded in 384-well, black-walled, clear-bottomed, at a density of 5,000 cells per well 24 h before the assay conductance and incubated overnight in their normal growth medium. On the experiment day the medium was replaced in each well with HBSS, HEPES, and compound/vehicle (0.2% DMSO). Dye solution (prepared according to the manufacturer) was added to the wells and plates are incubated for 1.5 h light-protected in room temperature. The Tecan Spark plate reader injectors were then primed with capsaicin and Ionomycin for channel activation and data normalization, respectively. […] To calculate IC50 values, the data was fitted to sigmoidal regression line using Prism GraphPad. The fitting was constrained to a minimum of 0 and a maximal response of about 1 unless a different maximal response could be identified.

hKv7.2/3 = target: T2, hKv7.2/3 (Homo sapiens, UniProt O43525+O43526); test: Kv7.2/7.3 HCS, FLIPR potassium (thallium) assay, CHO/hKv7.2/3; type: cell-based; settings: for EC50: Table 1, read-out: Kv7.2/7.3 IC50
T2 construct: host or cells: CHO
T2 sequence (O43525 whole entry): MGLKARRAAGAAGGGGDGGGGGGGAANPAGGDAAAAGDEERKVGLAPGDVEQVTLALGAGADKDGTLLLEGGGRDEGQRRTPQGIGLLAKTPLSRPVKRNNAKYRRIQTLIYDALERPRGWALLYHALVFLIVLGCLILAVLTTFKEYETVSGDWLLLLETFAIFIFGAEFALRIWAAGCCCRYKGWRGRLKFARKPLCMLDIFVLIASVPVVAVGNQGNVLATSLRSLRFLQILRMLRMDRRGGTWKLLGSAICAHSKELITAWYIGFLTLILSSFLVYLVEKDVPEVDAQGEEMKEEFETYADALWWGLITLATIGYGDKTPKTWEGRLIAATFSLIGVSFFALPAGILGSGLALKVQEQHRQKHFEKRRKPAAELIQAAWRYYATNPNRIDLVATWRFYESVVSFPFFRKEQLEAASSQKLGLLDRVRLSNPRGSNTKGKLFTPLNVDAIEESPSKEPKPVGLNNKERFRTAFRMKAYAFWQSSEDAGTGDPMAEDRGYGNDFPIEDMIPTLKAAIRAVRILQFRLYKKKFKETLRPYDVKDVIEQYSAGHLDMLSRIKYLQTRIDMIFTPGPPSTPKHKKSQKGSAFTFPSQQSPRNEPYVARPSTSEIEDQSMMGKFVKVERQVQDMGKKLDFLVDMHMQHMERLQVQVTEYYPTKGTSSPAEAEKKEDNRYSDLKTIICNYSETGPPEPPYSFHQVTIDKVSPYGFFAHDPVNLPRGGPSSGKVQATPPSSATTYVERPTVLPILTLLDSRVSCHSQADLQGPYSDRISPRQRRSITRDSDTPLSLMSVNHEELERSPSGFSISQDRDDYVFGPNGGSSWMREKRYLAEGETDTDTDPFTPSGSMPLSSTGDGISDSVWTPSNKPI
T2 sequence (O43526 whole entry): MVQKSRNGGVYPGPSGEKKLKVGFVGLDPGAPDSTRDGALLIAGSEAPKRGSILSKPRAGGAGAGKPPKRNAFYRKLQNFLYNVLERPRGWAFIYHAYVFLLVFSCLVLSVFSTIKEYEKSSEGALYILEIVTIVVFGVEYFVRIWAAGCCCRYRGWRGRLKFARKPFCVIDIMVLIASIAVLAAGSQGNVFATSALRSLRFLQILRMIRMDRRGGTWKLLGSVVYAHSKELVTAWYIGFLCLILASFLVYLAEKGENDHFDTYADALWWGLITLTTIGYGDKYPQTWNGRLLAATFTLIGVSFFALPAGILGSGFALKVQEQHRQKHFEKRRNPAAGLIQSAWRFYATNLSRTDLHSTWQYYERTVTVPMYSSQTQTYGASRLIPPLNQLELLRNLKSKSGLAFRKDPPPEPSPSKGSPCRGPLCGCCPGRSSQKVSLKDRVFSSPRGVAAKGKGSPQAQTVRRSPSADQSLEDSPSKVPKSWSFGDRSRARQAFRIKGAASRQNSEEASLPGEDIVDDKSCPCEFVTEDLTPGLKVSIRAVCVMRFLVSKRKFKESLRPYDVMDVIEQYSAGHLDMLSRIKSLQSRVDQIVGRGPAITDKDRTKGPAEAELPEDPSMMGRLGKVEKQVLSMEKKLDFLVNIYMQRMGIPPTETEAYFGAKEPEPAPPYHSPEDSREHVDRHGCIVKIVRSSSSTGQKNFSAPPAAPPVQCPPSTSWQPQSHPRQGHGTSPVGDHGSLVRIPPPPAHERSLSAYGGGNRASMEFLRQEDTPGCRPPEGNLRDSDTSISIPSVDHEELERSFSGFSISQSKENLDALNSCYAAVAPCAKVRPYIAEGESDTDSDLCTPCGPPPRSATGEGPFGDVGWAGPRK
Experimental: Cell culture: Chinese hamster ovary (CHO) cell-line cells with a constitutive expression of human Kv7.2/3 channels (B'SYS GmbH, Switzerland) were cultured in F-12 nutrient mixture (Biological Industries) supplemented with 10% fetal bovine serum (Biological Industries) and 1% penicillin-streptomycin (Biological Industries) in a humidified 5% CO2 incubator at 37° C. To maintain the stability of human Kv7.2/7.3 expression antibiotic selection was added (Puromycin 5 μg/ml).
High content screen (HCS) using FLIPR Potassium Assay Kit: A FLIPR Potassium Assay Kit (R8222 FLIPR Potassium Assay Explorer Kits, Molecular Devices) was used with the CHO/hKv7.2/3 cell line to screen molecules against the hKv7.2/7.3 ion channel target. The assay exploits the permeability of thallium ions (Tl+) through potassium (K+) channels. In this assay, Tl+ indicator dye is used to produce a bright fluorescent signal upon the binding to Tl+ conducted through the potassium channels. The intensity of the Tl+ signal is proportional to the number of potassium channels in the open state. Therefore, it provides a functional indication of the potassium channel activity. To activate the voltage-gate potassium channels, the cells were stimulated with a mixture of K+ and Tl+ to depolarize the cell membrane. The fluorescence increase in the assay represents the influx of Tl+ into the cell specifically through the potassium channel, providing a functional read-out of hKv7.2/3 activity using a fluorescent plate reader coupled with injectors used to activate the channels.
According to optimization process to achieve uniform and consistent screening conditions the following protocol was established: Cells were seeded in 384-well, black-walled, clear-bottomed Greiner #781091, at a density of 5000 cells per well 24 hours before the assay conductance and incubated overnight in their normal growth medium. On the experiment day the medium was replaced with HBSS, HEPES, and the test compound/vehicle (0.2% DMSO). Dye solution (prepared according to the manufacturer) was added to the plates, which were incubated for 1.5 h light-protected in room temperature. Tecan Spark reader plate injectors were primed with Tl+(1 mM Tl2SO4) or Tl++K+(1 mM Tl2SO4; 5 mM K2SO4) for channel activation and data correction. […] To calculate EC50 values, the data was fitted to sigmoidal regression using Prism GraphPad. The fitting was constrained to a minimum of 1 and a maximal response of about 3.6 unless a different maximal response could be clearly identified.

hERG = hERG (Homo sapiens, UniProt Q12809); test: hERG HCS, FLIPR potassium assay, CHO/hERG; type: cell-based; set-up: host or cells: CHO; settings: Table 1; for IC50: read-out: hERG IC50; for hERG IC50 (inhibition in parentheses): at highest concentration shown
hERG, sequence (Q12809 whole entry): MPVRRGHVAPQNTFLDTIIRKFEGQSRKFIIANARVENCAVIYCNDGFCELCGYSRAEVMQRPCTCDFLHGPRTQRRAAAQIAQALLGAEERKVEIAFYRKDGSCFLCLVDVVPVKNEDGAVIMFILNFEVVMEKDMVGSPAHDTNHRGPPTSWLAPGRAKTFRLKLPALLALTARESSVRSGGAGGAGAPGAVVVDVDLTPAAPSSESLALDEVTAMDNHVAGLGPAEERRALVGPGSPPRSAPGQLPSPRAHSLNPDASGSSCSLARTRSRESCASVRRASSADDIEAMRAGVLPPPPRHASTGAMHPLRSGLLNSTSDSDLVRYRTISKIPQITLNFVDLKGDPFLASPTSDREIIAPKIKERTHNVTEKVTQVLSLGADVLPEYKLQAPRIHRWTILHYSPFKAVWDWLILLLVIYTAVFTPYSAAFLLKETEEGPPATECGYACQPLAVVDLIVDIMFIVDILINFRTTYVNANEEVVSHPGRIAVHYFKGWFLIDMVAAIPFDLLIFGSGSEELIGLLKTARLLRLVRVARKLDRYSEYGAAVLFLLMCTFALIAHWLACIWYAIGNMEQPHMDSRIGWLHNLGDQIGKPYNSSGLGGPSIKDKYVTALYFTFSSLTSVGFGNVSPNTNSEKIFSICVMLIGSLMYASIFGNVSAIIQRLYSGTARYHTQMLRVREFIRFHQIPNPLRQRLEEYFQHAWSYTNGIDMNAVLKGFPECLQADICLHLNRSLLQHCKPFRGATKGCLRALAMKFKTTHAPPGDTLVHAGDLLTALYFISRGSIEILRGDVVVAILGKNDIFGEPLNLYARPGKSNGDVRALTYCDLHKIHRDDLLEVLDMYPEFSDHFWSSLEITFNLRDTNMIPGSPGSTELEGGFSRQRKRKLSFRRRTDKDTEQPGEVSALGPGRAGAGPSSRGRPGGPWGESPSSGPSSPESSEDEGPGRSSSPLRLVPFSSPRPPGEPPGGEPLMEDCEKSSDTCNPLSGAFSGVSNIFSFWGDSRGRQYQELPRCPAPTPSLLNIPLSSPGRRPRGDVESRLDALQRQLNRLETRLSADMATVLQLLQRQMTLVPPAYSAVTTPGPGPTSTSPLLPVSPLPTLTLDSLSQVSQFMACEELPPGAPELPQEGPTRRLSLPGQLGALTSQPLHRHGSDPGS
Experimental: Cell culture: Chinese hamster ovary (CHO) cell-line cells with a constitutive expression of human hERG channels (B'SYS GmbH, Switzerland) were cultured in F-12 nutrient mixture (Biological Industries) supplemented with 10% fetal bovine serum (Biological Industries) and 1% penicillin-streptomycin (Biological Industries) in a humidified 5% CO2 incubator at 37° C. To maintain the hERG expression stability of the CHO cell line, antibiotics selection (G418 […] and Hygromycin 500) was applied.
FLIPR Potassium Assay Kit: The FLIPR Potassium Assay Kit (R8222 FLIPR Potassium Assay Explorer Kits, Molecular Devices) was used with CHO/hERG cell line, for screening compounds against the hERG ion-channel off-target, as detailed hereinabove.
According to optimization process, to achieve a uniform and consistent screening condition of molecules, the following protocol was established: Cells were seeded in 384-well, black-walled, clear-bottomed, at a density of 7,500 cells per well 24 hours before the assay conductance and incubated overnight in their normal growth medium. On the experiment day the medium was replaced with HBSS, HEPES, and the tested compound/vehicle (0.2% DMSO). Dye solution (prepared according to the manufacturer) was added to the wells and plates were incubated for 1.5 hour light-protected in room temperature. The Tecan Spark plate-reader injectors were primed with Tl+(1 mM Tl2SO4) or Tl++K+(1 mM Tl2SO4; 10 mM K2SO4) for channel activation and data correction. […]. To calculate IC50 values, the data was fitted to sigmoidal regression using Prism GraphPad.

[3] = cells expressing TRPV1, read-out: TRPV1 IC50
[4] = 1-octanol/phosphate buffer, read-out: LogD

Structure (SMILES)	IC50 (hTRPV1; [3]) [µM]	EC50 (hKv7.2/3) [µM]	microsomal CLint at 1 µM [1] [µL/min/mg]	logD [2, 4]	solubility kinetic (Kinetic solubility) [µM]	also measured
Cc1cn(-c2ccc(F)c(CC(=O)NCCOCCOCC(C)(C)O)c2)c2c(Cl)cc(Cl)cc12 [Compound 541]	3.2	4.7	–	–	–	HLM Clint [1]: 772.2 µL/min/mg; logD [2]: 4.78; Kinetic Sol. (Kinetic solubility): 2
CC(C)c1cc(Cl)cc(Cl)c1Sc1ccc(F)c(CC(=O)N[C@H]2C[C@H](O)C2)c1 [Compound 480]	–	–	–	–	–	IC50 (hTRPV1): 1.4 µM
O=C(Cc1cncc(-n2cc(Cl)c3cc(Cl)cc(Cl)c32)c1)NCCO [Compound 649]	3.3	5.2	27.3	4.19	10 (≈ 3.99 µg/mL)	–
CC(C)c1cc(Cl)cc(Cl)c1C(O)c1ccc(F)c(CC(=O)NCC2(O)CCC2)c1 (single isomer, unassigned) [Compound 533p1]	–	–	–	–	–	TRPV1 modulation (words) (hTRPV1): inhibits hTRPV1; TRPV1 modulation (words) (hTRPV1; listed as 533P1): TRPV1 inhibition; Kv7.2/3 activation (words) (hKv7.2/3): lower; Kv7.2/3 activation (words) (hKv7.2/3; listed as 533P1): primarily activation of Kv7.2/3
COC[C@@H](CO)NC(=O)Cc1cc(Sc2c(Cl)cc(Cl)cc2C(C)C)ccc1F [Compound 414]	1.1	1.8	686	–	–	IC50 (hTRPV1; Table 2, read-out: Experimental IC50): 1.1 µM; IC50 (hERG): > 2.5 µM; hERG IC50 (inhibition in parentheses) (hERG): 0%
CC(C)c1cc(Cl)cc(Cl)c1C(=O)c1ccc(F)c(CC(=O)NCC2(O)CC2)c1 [Compound 573]	3	7	441	4.34	24 (≈ 10.5 µg/mL)	–
O=C(Cc1cncc(-n2cc(Cl)c3cc(Cl)cc(Cl)c32)c1)N[C@H]1COC[C@@H]1O [Compound 663]	–	5.9	53.6	3.52	26 (≈ 11.5 µg/mL)	–
O=C(Cc1cncc(-n2cc(Cl)c3cc(Cl)cc(Cl)c32)c1)N[C@@H]1COC[C@@H]1O [Compound 662]	–	8	38.1	3.49	6 (≈ 2.64 µg/mL)	TRPV1 IC50 (hTRPV1; cells expressing TRPV1): agonist
CC(C)c1cc(Cl)cc(Cl)c1C(O)c1ccc(F)c(CC(=O)NCC(C)(C)O)c1 (stereo not drawn) [Compound 417]	26.6	5.6	89.1	–	–	IC50 (hERG): > 2.5 µM; hERG IC50 (inhibition in parentheses) (hERG): 0%
Cc1cn(-c2ccc(F)c(CC(=O)NCCO)c2)c2c(Cl)cc(Cl)cc12 [Compound 552]	1	12	–	–	–	HLM Clint [1]: 27.2 µL/min/mg; logD [2]: 4.77; Kinetic Sol. (Kinetic solubility): 5

Source: US20260327211A1, “MODULATORS OF A POTASSIUM CHANNEL AND OF TRPV1 CHANNEL AND USES THEREOF” (Bsense Bio Therapeutics Ltd., priority 2023, published 2026)
